For one test, the system named is IHNV HV7601 strain. As to the kind of experiment: Antiviral activity by plaque reduction, IHNV in CHSE-214 cells. The test is classed as cell-based, infectious hematopoietic necrosis virus (IHNV) in salmonid. The note with it: decrease in number of plaques, sample and virus pre-incubated at 10° C. for 2 hours. Here is the method:
(§1) Evaluation of the antiviral activity was conducted by the same method as described by Burke et al. (Appln. Env. Microbiol., 29, 872-876, 1980) except for the following partial modification. • (1) A sample to be measured for its antiviral activity is dissolved in dimethyl sulfoxide (DMSO) and then diluted with Hank's solution. • (2) 0.2 mL each of the diluted solution in (1) and a viral solution (IHNV HV7601 strain; 100 to 200 PFU/sample) diluted with Hank's solution are mixed and incubated at 10° C. for 2 hours. • (3) After the incubation in (2), the sample is inoculated for 30 minutes in CHSE-214 cells previously cultured for 24 hours in a 24-well cell culture plate. • (4) The sample is removed from each well, and an MEM medium containing. 0.8% methyl cellulose is overlaid on the cells and cultured for 7 days. • (5) The cells on the culture plate are fixed in 3.7% aqueous formalin, and after staining with 1% Crystal Violet, the number of plaques is counted. • (6) The antiviral activity is expressed in terms of the decrease in the number of plaques, relative to that decrease on wells to which the sample was not added. (Composition of the Medium) • a) 5.00 g polypeptone, 2.50 g meat extract, 2.50 g yeast extract, 0.20 g K2HPO4, 0.05 g MgSO4, 1.00 g glucose, 5.00 g NaCl, 1000 mL distilled water, pH 7.5, which were autoclaved at 121° C. for 15 minutes. • b) 15.00 g agar for microorganisms is added to a).
In the following examples, the evaluation of the antiviral activity was conducted in the method described above.
(§2) The antiviral activities of the present peptide MA026 against infectious hematopoietic necrosis virus (IHNV) in salmonid, rhabdovirus (EVA) in American eels and rhabdovirus (EVEX) in European eels were measured according to the method described in Example 1.

Another test deals with hepatitis C virus (HCV). The test is classed as cell-based. As to conditions: summary of Table 14. Here is the method:
Using the present peptides MA026, BTI-MA026 and R2MA026 as objects, the antiviral effect against hepatitis C virus (HCV) was examined. The experiments were conducted according to the method of Mizutani et al. (Biochem. Biophys. Res. Commun. 227, 822-826, 1996) under supervision of Dr. Kunitada Shimotohno at Institute for Viral Research, Kyoto University. • (1) 1×10^6 gene titer per 0.1 mL of HCV was infected with 1×10^6 MT-2C cells per 1 mL, and cultured at 32° C. for 4 days. • (2) The infected cells of (1) were divided (10^5 cells per well) into a 96-well plate and incubated at 32° C. for 1 day. • (3) Each of the present peptides was added to each well so that the concentration thereof became 1 μM and 5 μM, and incubated at 32° C. for further 2 days. • (4) RNA was extracted from the test cells, and after synthesized cDNA with a reverse transcriptase, PCR of first and second round were performed to detect the HCV gene. • (5) The inhibition effect against HCV was evaluated by comparing fluorescence intensities of the PCR products originated from the HCV infected cells to which the test sample was added, assuming the fluorescence intensity of the PCR product originated from the infected cells to which no test substance was added, to be 100%.

In test [1] the test system is rhabdovirus (EVA) in American eels. As to the kind of experiment: Antiviral activity by plaque reduction, EVA. The test is classed as cell-based. As to conditions: method of Example 1, decrease in number of plaques. Here is the method:
as §1, with “(Composition of the Medium) • a) 5.00 g polypeptone, 2.50 g meat extract, 2.50 g yeast extract, 0.20 g K2HPO4, 0.05 g MgSO4, 1.00 g glucose, 5.00 g NaCl, 1000 mL distilled water, pH 7.5, which were autoclaved at 121° C. for 15 minutes. • b) 15.00 g agar for microorganisms is added to a).” left out
as §2

The test system of test [2] is rhabdovirus (EVEX) in European eels. Nature of the test: Antiviral activity by plaque reduction, EVEX. The note with it: method of Example 1, decrease in number of plaques. The test is classed as cell-based. Here is the method:
as §1, with “(Composition of the Medium) • a) 5.00 g polypeptone, 2.50 g meat extract, 2.50 g yeast extract, 0.20 g K2HPO4, 0.05 g MgSO4, 1.00 g glucose, 5.00 g NaCl, 1000 mL distilled water, pH 7.5, which were autoclaved at 121° C. for 15 minutes. • b) 15.00 g agar for microorganisms is added to a).” left out
as §2

In test [3] the test system is white spot syndrome virus (WSSV). Nature of the test: Antiviral effect against shrimp virus: injection of peptide-treated WSSV into shrimp. Format: in vivo, Penaeus monodon (black tiger shrimp). As to conditions: WSSV mixed with equal volume of 100 μg/mL peptide solution, 25° C. 1 hour, 0.1 mL intramuscular; observed 2 weeks; 10 shrimps per group. Here is the method: Penaeus monodon (black tiger shrimp) weighing about 20 g were divided at random into groups each consisting of 10 shrimps and raised separately. A viral culture fluid prepared by diluting the white spot syndrome virus (WSSV LD50 value; 10^−3.6) 2000-fold with Hank's solution was mixed with an equal volume of a diluted solution (100 μg/mL) of the present peptides MA026 and BTI-MA026. After the mixture was incubated at 25° C. for 1 hour, the solution was intramuscularly injected at a dose of 0.1 mL into each shrimp, for viral inoculation. Whether the shrimps were actually inoculated with the virus or not was determined by observing them for 2 weeks after viral infection, and pathologically examining the ones that dies. The lesion tissues were examined to detect the viral gene by the PCR method. In the control group, Hank's solution only was used.

SMILES strings stand for the structures. Where a SMILES comes first, the peptide text is derived from it. Bridges are numbered along the chain shown (N, C = ends). [ ]: non-standard residue; d: D form. The star is where a group is joined. ξ: configuration not given here. Decanoyl(3ξ-OH) = CCCCCCCC(O)CC(=O)*; X1 = CCCCCC/C=C/CC(O)CC(=O)*; Dab = NCC[CH](N)C(=O)O

As for `CCCCCC/C=C/CC(O)CC(=O)NC(CC(C)C)C(=O)NC(CCC(=O)O)C(=O)NC(CCC(N)=O)C(=O)NC(C(=O)NC(CC(C)C)C(=O)NC(CCC(N)=O)C(=O)NC1COC(=O)C(C(C)CC)NC(=O)C(CCC(N)=O)NC(=O)C(CC(C)C)NC(=O)C(CCC(N)=O)NC(=O)C(CC(C)C)NC(=O)C(CC(C)C)NC(=O)C(C(C)C)NC1=O)C(C)C` (stereo not drawn) [R2MA026] (X1-LEQVLQSVLLQLQI; ester 7-C; configuration not given here), the “antiviral activity against IHNV” value in the test with IHNV HV7601 strain is “confirmed”. The “proliferation of hepatitis C virus” value in the test on hepatitis C virus (HCV) is given as “inhibited”.
As to `CCCCCCCC(O)CC(=O)NC(CC(C)C)C(=O)NC(CCC(=O)O)C(=O)NC(CCN)C(=O)NC(C(=O)NC(CC(C)C)C(=O)NC(CCN)C(=O)NC(CO)C(=O)NC(C(=O)NC(CC(C)C)C(=O)NC(CC(C)C)C(=O)NC(CCN)C(=O)NC(CC(C)C)C(=O)NC(CCN)C(=O)NC(C(=O)O)C(C)CC)C(C)C)C(C)C` (stereo not drawn) [BTI-base MA026] ({Decanoyl(3ξ-OH)}-LE[Dab]VL[Dab]SVLL[Dab]L[Dab]I-OH; configuration not given here), the “antiviral activity against IHNV” value in the test on IHNV HV7601 strain is reported as “confirmed”.
Still for that read-out and setting: to `CCCCCCCC(O)CC(=O)NC(CC(C)C)C(=O)NC(CCC(=O)O)C(=O)NC(CCC(N)=O)C(=O)NC(C(=O)NC(CC(C)C)C(=O)NC(CCC(N)=O)C(=O)NC1COC(=O)C(CC(C)C)NC(=O)C(CCC(N)=O)NC(=O)C(CC(C)C)NC(=O)C(CCC(N)=O)NC(=O)C(CC(C)C)NC(=O)C(C(C)C)NC(=O)C(C(C)C)NC1=O)C(C)C` (stereo not drawn) [R1MA026] ({Decanoyl(3ξ-OH)}-LEQVLQSVVLQLQL; ester 7-C; configuration not given here) belongs “confirmed”.
On to `CCCCCCCC(O)CC(=O)NC(CC(C)C)C(=O)NC(CCC(=O)O)C(=O)NC(CCC(N)=O)C(=O)NC(C(=O)NC(CC(C)C)C(=O)NC(CCC(N)=O)C(=O)NC1COC(=O)C(C(C)CC)NC(=O)C(CCC(N)=O)NC(=O)C(CC(C)C)NC(=O)C(CCC(N)=O)NC(=O)C(CC(C)C)NC(=O)C(CC(C)C)NC(=O)C(C(C)C)NC1=O)C(C)C` (stereo not drawn) [MA026] ({Decanoyl(3ξ-OH)}-LEQVLQSVLLQLQI; ester 7-C; configuration not given here), for which, in the test on IHNV HV7601 strain, the “antiviral activity against IHNV” value is recorded as “high antiviral activity”. In addition, the “antiviral activity against EVA” value in test [1] is reported as “high antiviral activity”. For the same compound, in test [2], the “antiviral activity against EVEX” value is recorded as “high antiviral activity”. In addition, the “dead shrimp after inoculation with WSSV” value in test [3] is “no dead shrimp”. The “proliferation of hepatitis C virus” value in the test with hepatitis C virus (HCV) is recorded as “inhibited”.
On to `CCCCCCCC(O)CC(=O)NC(CC(C)C)C(=O)NC(CCC(=O)O)C(=O)NC(CCN)C(=O)NC(C(=O)NC(CC(C)C)C(=O)NC(CCN)C(=O)NC1COC(=O)C(C(C)CC)NC(=O)C(CCN)NC(=O)C(CC(C)C)NC(=O)C(CCN)NC(=O)C(CC(C)C)NC(=O)C(CC(C)C)NC(=O)C(C(C)C)NC1=O)C(C)C` (stereo not drawn) [BTI-MA026] ({Decanoyl(3ξ-OH)}-LE[Dab]VL[Dab]SVLL[Dab]L[Dab]I; ester 7-C; configuration not given here), for which, in the test with IHNV HV7601 strain, the “antiviral activity against IHNV” value is reported as “confirmed”. In addition, the “dead shrimp after inoculation with WSSV” value in test [3] is “no dead shrimp”. Also, in the test with hepatitis C virus (HCV), the “proliferation of hepatitis C virus” value is “inhibited”.

The record behind these values is patent US7268209B2, “Peptides, derivates thereof, process for producing the same, novel strain producing the same, and antiviral agent comprising the same as active ingredient” (Toyo Suisan Kaisha, Ltd., priority 2001, dated 2007).
